Experiment [1] relates to human colon cancer cell SW620. Put plainly: MTT proliferation assay in combination with CPT-11, SW620. The settings on record: Homo sapiens, SW-620, 120 h, medium containing 205 nM CPT-11, 5 days, read-out: IC50, inhibition of proliferation of SW620 combined with CPT-11. Format: cell-based. The method in brief: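 SW620 cells in RPMI 1640 + 10% FBS are seeded overnight, then given compound in fresh medium containing 205 nM CPT-11 (1% DMSO final) for 5 days at 37 °C, 5% CO2. Viability is read by MTT (0.5 mg/mL, 4 h) at 552/690 nm, normalised to background-corrected DMSO wells. IC50 is taken from viability versus log concentration.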
A general note: Tetrazolium dyes change colour on reduction, which living cells bring about.

In the next experiment the target is T1, ATM kinase (Homo sapiens, UniProt Q13315).
T1 construct: purchased Eurofins 14-933
T1 sequence (Q13315 whole entry): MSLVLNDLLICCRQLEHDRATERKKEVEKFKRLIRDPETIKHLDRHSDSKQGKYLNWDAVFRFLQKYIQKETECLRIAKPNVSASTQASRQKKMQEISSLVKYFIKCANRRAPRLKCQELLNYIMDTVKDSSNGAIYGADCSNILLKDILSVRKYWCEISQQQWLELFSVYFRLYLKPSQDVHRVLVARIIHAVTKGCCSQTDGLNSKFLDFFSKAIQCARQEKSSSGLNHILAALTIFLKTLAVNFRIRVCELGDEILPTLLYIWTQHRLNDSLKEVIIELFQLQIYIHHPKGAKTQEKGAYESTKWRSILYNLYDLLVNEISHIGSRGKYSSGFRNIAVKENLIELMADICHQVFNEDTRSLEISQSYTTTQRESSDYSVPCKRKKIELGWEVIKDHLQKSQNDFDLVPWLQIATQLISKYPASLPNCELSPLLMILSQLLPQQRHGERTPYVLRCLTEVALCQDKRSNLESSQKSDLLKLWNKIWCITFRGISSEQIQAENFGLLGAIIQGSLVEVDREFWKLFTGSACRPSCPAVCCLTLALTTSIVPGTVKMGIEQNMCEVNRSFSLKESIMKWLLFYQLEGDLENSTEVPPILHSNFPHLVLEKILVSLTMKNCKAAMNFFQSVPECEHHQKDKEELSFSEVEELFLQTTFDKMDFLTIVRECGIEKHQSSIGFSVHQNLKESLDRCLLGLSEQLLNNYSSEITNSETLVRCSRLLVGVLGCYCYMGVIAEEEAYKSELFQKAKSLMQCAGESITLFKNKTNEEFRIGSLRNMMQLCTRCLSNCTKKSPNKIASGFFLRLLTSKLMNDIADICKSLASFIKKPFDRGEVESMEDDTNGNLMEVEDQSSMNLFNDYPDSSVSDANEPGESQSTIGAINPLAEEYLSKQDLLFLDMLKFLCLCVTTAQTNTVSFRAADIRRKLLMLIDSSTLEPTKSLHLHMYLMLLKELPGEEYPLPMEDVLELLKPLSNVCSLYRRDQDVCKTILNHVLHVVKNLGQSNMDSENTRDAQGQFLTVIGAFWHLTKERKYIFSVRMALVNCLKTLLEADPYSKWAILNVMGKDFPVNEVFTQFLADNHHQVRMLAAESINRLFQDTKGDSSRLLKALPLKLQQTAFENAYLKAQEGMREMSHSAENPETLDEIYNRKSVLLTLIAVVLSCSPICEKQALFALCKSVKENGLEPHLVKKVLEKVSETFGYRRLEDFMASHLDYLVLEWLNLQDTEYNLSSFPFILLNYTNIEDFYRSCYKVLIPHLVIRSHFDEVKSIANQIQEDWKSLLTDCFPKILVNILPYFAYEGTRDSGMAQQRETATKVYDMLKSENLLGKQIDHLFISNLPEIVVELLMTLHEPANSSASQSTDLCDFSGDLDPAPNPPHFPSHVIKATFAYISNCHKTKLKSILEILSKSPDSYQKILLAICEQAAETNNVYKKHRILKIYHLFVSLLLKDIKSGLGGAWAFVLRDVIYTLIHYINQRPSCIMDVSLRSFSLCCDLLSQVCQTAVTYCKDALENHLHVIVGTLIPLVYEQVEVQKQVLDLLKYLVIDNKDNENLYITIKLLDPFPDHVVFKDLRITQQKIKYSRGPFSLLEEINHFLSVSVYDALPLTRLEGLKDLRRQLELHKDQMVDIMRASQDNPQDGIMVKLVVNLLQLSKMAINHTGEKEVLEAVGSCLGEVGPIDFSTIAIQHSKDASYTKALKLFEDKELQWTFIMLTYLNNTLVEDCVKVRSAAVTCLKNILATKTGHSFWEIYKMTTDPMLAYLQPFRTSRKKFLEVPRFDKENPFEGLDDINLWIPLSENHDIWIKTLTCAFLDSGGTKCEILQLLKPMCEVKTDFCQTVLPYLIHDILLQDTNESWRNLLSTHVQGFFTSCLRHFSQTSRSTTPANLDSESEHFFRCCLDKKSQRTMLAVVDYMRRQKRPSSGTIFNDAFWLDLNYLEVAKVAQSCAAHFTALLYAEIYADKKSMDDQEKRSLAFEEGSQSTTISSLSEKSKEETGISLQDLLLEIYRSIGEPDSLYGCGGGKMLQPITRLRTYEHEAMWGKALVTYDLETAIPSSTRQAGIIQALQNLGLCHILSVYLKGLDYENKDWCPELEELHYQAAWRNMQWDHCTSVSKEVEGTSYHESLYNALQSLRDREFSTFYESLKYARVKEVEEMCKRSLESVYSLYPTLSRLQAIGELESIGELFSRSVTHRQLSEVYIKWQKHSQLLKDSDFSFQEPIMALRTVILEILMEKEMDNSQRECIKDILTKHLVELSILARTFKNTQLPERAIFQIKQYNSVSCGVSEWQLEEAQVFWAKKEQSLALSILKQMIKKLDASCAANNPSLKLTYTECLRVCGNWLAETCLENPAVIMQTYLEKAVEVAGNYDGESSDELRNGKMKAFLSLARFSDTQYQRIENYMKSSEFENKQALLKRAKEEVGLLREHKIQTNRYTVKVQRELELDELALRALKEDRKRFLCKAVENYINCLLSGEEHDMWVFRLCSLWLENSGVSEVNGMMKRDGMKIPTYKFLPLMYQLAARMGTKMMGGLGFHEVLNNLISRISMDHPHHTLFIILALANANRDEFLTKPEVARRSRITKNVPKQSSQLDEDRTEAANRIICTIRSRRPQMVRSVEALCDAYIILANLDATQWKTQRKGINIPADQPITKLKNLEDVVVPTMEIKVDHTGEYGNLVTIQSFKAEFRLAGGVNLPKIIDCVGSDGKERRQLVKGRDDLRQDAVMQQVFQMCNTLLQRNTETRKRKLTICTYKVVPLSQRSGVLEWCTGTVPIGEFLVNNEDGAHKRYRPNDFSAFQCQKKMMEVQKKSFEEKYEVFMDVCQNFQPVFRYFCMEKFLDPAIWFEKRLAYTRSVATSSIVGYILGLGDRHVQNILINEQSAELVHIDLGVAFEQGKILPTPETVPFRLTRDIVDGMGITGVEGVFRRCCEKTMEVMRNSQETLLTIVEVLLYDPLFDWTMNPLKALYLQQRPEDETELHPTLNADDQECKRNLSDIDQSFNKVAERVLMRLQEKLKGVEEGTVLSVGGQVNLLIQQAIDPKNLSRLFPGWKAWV
Put plainly: In vitro ATM kinase assay (Cisbio HTRF, p53 substrate). It is filed as biochemical. The following applies: 30 μM ATP. For orientation: Time-resolved FRET reads energy transfer from a long-lived donor to a nearby acceptor.

Experiment [2] has as its system human breast cancer cell MDA-MB-468. Kind of experiment: MTT proliferation assay, MDA-MB-468. Format: cell-based. The following applies: Homo sapiens, MDA-MB-468, 168 h, 7 days, single agent, read-out: IC50, inhibition of proliferation of MDA-MB-468. In short, it runs like this: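 Cells seeded overnight, then treated 7 days at 37 °C, 5% CO2 in RPMI 1640 + 5% FBS with 1% final DMSO, medium changed on day 4. MTT (0.5 mg/mL) for 4 h, DMSO-solubilised, absorbance at 552 and 693 nm; viability relative to DMSO after background subtraction, IC50 from log-concentration curves.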

pIC50: −log10 of the molar value.

For `Cc1nc(N2C[C@@H](C)O[C@@H](C)C2)n2c1cnc1ccc(-c3ccc(N4CCC(N(C)C)CC4)nc3)cc12` [Example 38, 1-(5-(1-((2S,6R)-2,6-dimethylmorpholino)-3-methylimidazo[1,5-a]quinoxalin-8-yl)pyridin-2-yl)-N,N-dimethylpiperidin-4-amine], the pIC50 in experiment [1] is 8.06; on ATM kinase, 9.70; in experiment [2], 8.16.
On to `Cc1nc(N2C[C@@H](C)O[C@@H](C)C2)n2c1cnc1ccc(-c3ccc(N4CCC(N(C)C)CC4)c(F)c3)cc12` [Example 39, 1-(4-(1-((2S,6R)-2,6-dimethylmorpholino)-3-methylimidazo[1,5-a]quinoxalin-8-yl)-2-fluorophenyl)-N,N-dimethylpiperidin-4-amine], for which the pIC50 was 8.14 in experiment [1], 9.70 on ATM kinase and 8.13 in experiment [2].
As for `Cc1nc(N2C[C@@H](C)O[C@@H](C)C2)n2c1cnc1ccc(-c3ccc(N4CCC(N(C)C)CC4)c(Cl)c3)cc12` [Example 40, 1-(2-chloro-4-(1-((2S,6R)-2,6-dimethylmorpholino)-3-methylimidazo[1,5-a]quinoxalin-8-yl)phenyl)-N,N-dimethylpiperidin-4-amine], the results for the pIC50 (in experiment [1]; against ATM kinase; in experiment [2]) were 8.09, 9.70 and 8.19, respectively.
For `CCc1nc(N2C[C@@H](C)O[C@@H](C)C2)n2c1cnc1ccc(-c3ccc(OCCCN(C)C)nc3)cc12` [Example 41, 3-((5-(1-((2S,6R)-2,6-dimethylmorpholino)-3-ethylimidazo[1,5-a]quinoxalin-8-yl)pyridin-2-yl)oxy)-N,N-dimethylpropan-1-amine], the pIC50 in experiment [1] was 7.27; on ATM kinase, 9.82; in experiment [2], 7.37.
As for `C[C@@H]1CN(c2ncc3cnc4ccc(-c5ccc(OCCCN(C)C)nc5)cc4n23)C[C@H](C)O1` [Example 43, 3-((5-(1-((2S,6R)-2,6-dimethylmorpholino)imidazo[1,5-a]quinoxalin-8-yl)pyridin-2-yl)oxy)-N,N-dimethylpropan-1-amine], the pIC50 in experiment [1] was 7.75; against ATM kinase, 9.39; in experiment [2] it was 7.78.
Regarding `Cc1nc(N2C[C@@H](C)O[C@@H](C)C2)n2c1cnc1ccc(-c3ccc(NCCCN(C)C)nc3)cc12` [Example 46, N^1-(5-(1-((2S,6R)-2,6-dimethylmorpholino)-3-methylimidazo[1,5-a]quinoxalin-8-yl)pyridin-2-yl)-N^3,N^3-dimethylpropane-1,3-diamine], the figures for the pIC50 (in experiment [1]; on ATM kinase; in experiment [2]) were 7.33, 9.74 and 7.40, respectively.
As to `Cc1nc(N2C[C@@H](C)O[C@@H](C)C2)n2c1cnc1ccc(-c3ccc(N4CCC(N)CC4)nc3)cc12` [Example 48, 1-(5-(1-((2S,6R)-2,6-dimethylmorpholino)-3-methylimidazo[1,5-a]quinoxalin-8-yl)pyridin-2-yl)piperidin-4-amine], the figures for the pIC50 (in experiment [1]; against ATM kinase; in experiment [2]) were 7.92, 9.34 and 8.12, respectively.
Turning to `CNC1CCN(c2ccc(-c3ccc4ncc5c(C)nc(N6C[C@@H](C)O[C@@H](C)C6)n5c4c3)cn2)CC1` [Example 49, 1-(5-(1-((2S,6R)-2,6-dimethylmorpholino)-3-methylimidazo[1,5-a]quinoxalin-8-yl)pyridin-2-yl)-N-methylpiperidin-4-amine], the pIC50 in experiment [1] was 8.15; against ATM kinase it was 9.10; in experiment [2] it was 8.35.
Turning to `CCNC1CCN(c2ccc(-c3ccc4ncc5c(C)nc(N6C[C@@H](C)O[C@@H](C)C6)n5c4c3)cn2)CC1` [Example 50, 1-(5-(1-((2S,6R)-2,6-dimethylmorpholino)-3-methylimidazo[1,5-a]quinoxalin-8-yl)pyridin-2-yl)-N-ethylpiperidin-4-amine], the results for the pIC50 (in experiment [1]; at ATM kinase; in experiment [2]) were 8.20, 9.39 and 8.09, respectively.
Turning to `Cc1nc(N2C[C@@H](C)O[C@@H](C)C2)n2c1cnc1ccc(-c3ccc(OCCCN4CCOCC4)nc3)cc12` [Example 58, (2S,6R)-2,6-dimethyl-4-(3-methyl-8-(6-(3-morpholinopropoxy)pyridin-3-yl)imidazo[1,5-a]quinoxalin-1-yl)morpholine], the pIC50 is 7.63 in experiment [1], 9.72 on ATM kinase and 7.75 in experiment [2].
For `Cc1nc(N2C[C@@H](C)O[C@@H](C)C2)n2c1cnc1ccc(-c3ccc(OCCCN4CCN(C)CC4)nc3)cc12` [Example 59, (2S,6R)-2,6-dimethyl-4-(3-methyl-8-(6-(3-(4-methylpiperazin-1-yl)propoxy)pyridin-3-yl)imidazo[1,5-a]quinoxalin-1-yl)morpholine], the pIC50 in experiment [1] is 7.92; at ATM kinase, 9.72; in experiment [2] it was 8.04.

Values taken from patent US12653830B2, “Substituted imidazoquinoxaline compounds and uses thereof” (Impact Therapeutics (Shanghai), Inc, priority 2019, dated 2026).
